Data from patent publication US20140256663A1, “Amphotericin Analogous Compounds and Pharmaceutical Compositions Containing Them” (CENTRO DE INVESTIGACION Y DE ESTUDIOS AVANZADOS DEL …, priority 2010, published 2014).
Converted amounts (≈) assume the structure as drawn. “Also recorded” adds a separate entry of the source.

Experiments:
[1] = test system: human renal cells 293Q (ATCC CLR-1573); experiment: MTT cytotoxicity on human renal cells 293Q
Protocol: For cytotoxicity studies human kidney cells (ATCC No. CRL-1573) were used. The cells were cultured with Minimum Essential Medium (MEM) (GIBCO BRL), supplemented with 10% fetal bovine serum (FBS) (GIBCO BRL), 2 mM 1-glutamine (GIBCO BRL), 1.5 gL Na2HCO3 (Sigma Chemical Co), 0.1 mM nonessential amino acids (Sigma Chemical Co), and 1 mM sodium pyruvate (In vitro, S.A.). The technique of bromide of 3(4,5-dimethylthiazol-2-yl)-2,5-diphenyl tetrazolium (MTT) (Sigma Chemical Co) was applied; a technique which is based on the conversion of dye to an insoluble precipitate called formazan. This test is used as an indicator of mitochondrial function in living cells that measures the metabolic capacity in cells and serves as an indicator of cytotoxicity. […] (Mosman […], Immunol Methods, 65: 55-63). The cytoxicity test consisted of planting 10,000 cells per well in 96-well plates (Corning Incorporated Costar) in MEM and incubate them (Nuaire us autoflow CO2 water-jacketed incubator) during 24 h at 37° C. and 5% CO2. […] After incubation, cells were treated and incubated anew for 24 h. After this time the medium was aspirated carefully and replaced with 200 μL of fresh medium, and 50 μL of MTT was added for a total volume of 250 μl. They were then incubated for 4 hours in the above conditions. After that time the medium with MTT was carefully removed and 200 μL of DMSO and 25 μL of Sorensen buffer (0.1 M glycine+0.1 M NaCl at pH 10.5) were added to each well. The plate was then mixed until the formazan crystals dissolved, and it was finally read in a plate reader (Microplate Limaning System Ultramark, Biorad) at a wavelength of 550 nm.
For the tests, we used human renal ephythelial cells (293Q) (ATCC Catalog No. CRL-1573). The cells were cultured with Minimum Essential Medium (MEM) (GIBCO BRL) supplemented with 10% fetal bovine serum (FBS) (GIBCO BRL), 2 mM L-glutamine (GIBCO BRL), 1.5 g/L Na2HCO3 (Sigma Chemical Co), 0.1 mM nonessential amino acids (Sigma Chemical Co), and 1 mM sodium pyruvate (In vitro, S.A.). For cytoxicity tests, we applied the technique of bromide 3(4,5-dimethylthiazol-2-yl)-2,5-diphenyl tetrazolium (MTT) (Sigma Chemical Co), which is based on the conversion of the dye to an insoluble precipitate called formazan. This test is used as an indicator of mitochondrial function in living cells which measures the metabolic capacity in cells and serves as an indicator of cytotoxicity. (Wang, H. Z., Chang, C. H., Lin, C. P., Tsai, M. C). Using MTT viability assay to test the cytotoxicity of antibiotics and steroid to cultured porcine corneal endothelial cells. J. Ocul. Pharmacol. Ther. 1996; 12: 35-43). For the essay 10,000 cells were seeded per well in 96-well plates (Corning Incorporated Costar) in the medium already indicated and incubated for 24 h at 37° C. and 5% CO2. […] After incubation, cells were treated and incubated again for 24 h. The medium was carefully aspirated and replaced with 200 μl fresh medium, adding 50 μl MTT solution for a total volume of 250 μl. They were then incubated for 4 hours in the above conditions. The medium was carefully removed with MTT and 200 μl DMSO and 25 μl Sorense buffer (0.1 M glycine+0.1 M NaCl at pH 10.5) was added to each well. Then the plate was mixed until the formazan crystals dissolved; it was finally read in a reader plate (Microplate Limaning System Ultramark, Biorad) at a wavelength of 550 nm.

[2] = Unit channel studies in chicken egg lecithin bilayers with cholesterol
Protocol: The activity is determined by the presence of the different channels formed by polyenes in the lipid bilayer (Cotero, et al., supra; Venegas, et al., supra). […] These values were determined by the technique of unit channel delineated above.
Unit channel studies were performed according to procedures described earlier (Cotero, et al., supra, Venegas, et al., supra). Required liposomal suspensions were prepared using lecithin with cholesterol or ergosterol. These suspensions were placed in an ultrasonic bath for 15 minutes to produce unilamellar vesicles. Subsequently, the suspension was placed in a 100 μl eppendorf and a lipid bilayer was formed on the tip of a micro-electrode. The unit channels of amphotericin and of the invented compounds were incorporated to this bilayer. The unit channel current of the various compounds was recorded with an electrometer, and then these records were analyzed by determining the activity of the compounds and the characteristics of the channels formed.
The activity is determined by the presence of the various channels formed by polyenes in the lipid bilayer (Cotero, et al., supra, Venegas, et al., supra). […] This conductance is the effect of all the channels present and was determined by the unit channel technique earlier described.

human erythrocytes = experiment: Hemolytic assay on human erythrocytes; format: cell-based; conditions: 1 hour
Protocol: The hemotoxicity of the polyene macrolide derivative of the present invention was determined by measuring the toxicity to human erythrocytes (values HE50) using a method established by Cybulska, et al. (Cybulska, B., Borowski, E. and Gary-Bobo, M. Relationship between ionophoric and hemolytic activities of perimycin A and vacidin A, two polyene macrolide antifungal antibiotics. Biochem Pharmacol. 1989; 38(11): 1755-1762). For determining the haematoxicity 2 mL blood were obtained and placed in a tube with EDTA. The number of erythrocytes was counted in a Neubauer chamber, and 1×10^7 cells/mL were placed in test tubes. The erythrocytes were resuspended in 450 μL of KCl 150 mM+Tris 3 mM buffer. The erythrocytes were treated with concentrations of 0.01, 0.1, 1, 10 y 100 μM and incubated in a water bath for 1 hour. They were then centrifuged at 1500 rpm for 15 seconds; 150 μL were taken from the supernatant and placed in 96-well plates; the optical density of each group was measured using a plate reader at a wavelength of 550 nm. We included one tube with the drug solvent (DMSO 1%) as internal control. We also included one tube only with erythrocytes and 500 μl of buffer KCl 150 mM+Tris 3 mM, which we consider as a negative control group and a tube with 500 μl of red cells and 35 mM NaCl (positive control).

[3] = test system: Candida albicans ATCC 10231; experiment: Antifungal activity in vitro by flow cytometry, Candida albicans ATCC 10231; format: cell-based
[4] = 200 μM compound, 30 mol % cholesterol, 27° C.

SMILES	DT50 CitE50 ([1]; human, 24 h)	MIC50 Kidney cells (293Q) ([1]; human, 24 h)	Average conductance cholesterol ([2]; AmB 6 μM, 30° C.)	HE50 (Hemolysis 50) (human erythrocytes)	MIC50 ([3]; ATCC10231, Compounds of the present invention)	collateral cytotoxicity on human renal cells 293Q compared to AmB ([1]; FIG. 2, FIG. 8, listed as amide 7)	DT50 CitE50 ([1]; human renal cells 293Q, 24 h)	Opening probability, channel type I [2, 4]	Opening probability, channel type II [2, 4]	Opening probability, channel type III [2, 4]	Opening probability, channel type IV [2, 4]	Opening probability, channel type V [2, 4]	Opening probability, channel type VI [2, 4]	activity of transmembranal channels in the cholesterol membrane ([2]; in words, compared to AmB)	IC50 ([3]; ATCC10231, 24 h, read-out: CF50 Candida albicans ATCC 10231)
C[C@@H]1[C@H](O)[C@@H](C)/C=C/C=C/C=C/C=C/C=C/C=C/C=C/[C@H](O[C@@H]2O[C@H](C)[C@@H](O)[C@H](N)[C@@H]2O)C[C@@H]2O[C@](O)(C[C@@H](O)C[C@@H](O)[C@H](O)CC[C@@H](O)C[C@@H](O)CC(=O)O[C@H]1C)C[C@H](O)[C@H]2C(=O)O [AmB, Amphotericin B]	9.7 µM	9.7 µM (≈ 8.96 µg/mL)	26.6 ± 9.9 fS	7 µM	0.2 µg/mL (≈ 0.216 µM)										
COC(=O)[C@@H](Cc1c[nH]c2ccccc12)NC(=O)[C@@H]1C(O)C[C@@]2(O)C[C@@H](O)C[C@@H](O)[C@H](O)CC[C@@H](O)C[C@@H](O)CC(=O)OC(C)C(C)[C@H](O)C(C)/C=C/C=C/C=C/C=C/C=C/C=C/C=C/[C@H](OC3OC(C)C(O)C(N)C3O)CC1O2 (stereo partly shown) [A-7, N-(D)-tryptophanamide of AmB]				80 µM		the lowest cytoxicity; also recorded: low cytoxicity	220 µM	14%	7%	<1%	<1%	<1%	N.O.	more reduced activity of transmembranal channels	1500 nM
